36 compounds from ChEMBL document CHEMBL2380242, “Discovery of novel orally bioavailable GPR40 agonists” (Bioorg Med Chem Lett, 2013) can be followed below.

The structures appear in SMILES notation. Activity calls are given as the source filed them. The rule behind the calls is not given here.

Data set [1] addresses T1, Free fatty acid receptor 1 (Homo sapiens, UniProt O14842). Put plainly: Agonist activity at human GPR40 transfected in CHO cells by calcium flux assay relative to TAK-875. In kind it is functional, cell-based. Background: Calcium assays in cells follow changes in intracellular calcium, usually with a dye or a luminescent sensor.
The target in data set [2] is T1, Free fatty acid receptor 1. Put plainly: Agonist activity at human GPR40 transfected in CHO cells by calcium flux assay. The format is functional, cell-based.
Data set [3] concerns Mus musculus. Put plainly: Antidiabetic activity in high fat feasted ICR mouse assessed as reduction of blood glucose excursion at 50 mg/kg, po administered 15 mins prior to dextrose challenge measured for 120 mins by OGTT. In kind it is functional, organism-based. Also noted: dose 50 mg/kg.
Data set [4] concerns the target Free fatty acid receptor 1 (Rattus norvegicus) (UniProt Q8K3T4). As to the kind of experiment: Agonist activity at GPR40 in rat INS-1 cells assessed as glucose-stimulated insulin secretion relative to TAK-875. The format is cell-based. As to conditions: INS1.
Data set [5] in a line: Cmax in rat at 5 mg/kg, po. The format is ADME, organism-based. Details: dose 5 mg/kg, route oral. To be noted: in vivo.
A short description of data set [6]: AUC in rat at 5 mg/kg, po. The format is ADME, organism-based. Details: dose 5 mg/kg, route oral. As to conditions: plasma.
The nature of data set [7]: Half life in rat at 5 mg/kg, po. To be noted: in vivo. Details: dose 5 mg/kg, route oral. The format is ADME, organism-based.
Another data set deals with Rattus norvegicus. Put plainly: Volume of distribution in rat at 5 mg/kg, po. Also noted: dose 5 mg/kg, route oral. As to conditions: in vivo. The format is ADME, organism-based.
The nature of data set [8]: Plasma clearance in rat at 5 mg/kg, po. In kind it is ADME, organism-based. Details: dose 5 mg/kg, route oral.
Data set [9] deals with Mus musculus. As to the kind of experiment: Antidiabetic activity in high fat feasted ICR mouse assessed as inhibition of blood glucose excursion at 50 mg/kg, po administered 15 mins prior to dextrose challenge measured for 120 mins by OGTT relative to control. In kind it is functional.

T1 sequence (O14842 whole entry): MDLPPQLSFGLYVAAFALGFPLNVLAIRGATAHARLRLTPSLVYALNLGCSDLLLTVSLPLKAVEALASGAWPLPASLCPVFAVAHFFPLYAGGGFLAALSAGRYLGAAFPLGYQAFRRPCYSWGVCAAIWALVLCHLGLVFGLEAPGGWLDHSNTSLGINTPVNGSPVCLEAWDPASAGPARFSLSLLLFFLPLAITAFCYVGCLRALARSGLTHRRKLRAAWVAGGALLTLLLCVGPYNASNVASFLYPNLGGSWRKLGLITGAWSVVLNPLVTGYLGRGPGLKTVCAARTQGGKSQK
Sequence of Free fatty acid receptor 1 (Rattus norvegicus) (Q8K3T4 whole entry): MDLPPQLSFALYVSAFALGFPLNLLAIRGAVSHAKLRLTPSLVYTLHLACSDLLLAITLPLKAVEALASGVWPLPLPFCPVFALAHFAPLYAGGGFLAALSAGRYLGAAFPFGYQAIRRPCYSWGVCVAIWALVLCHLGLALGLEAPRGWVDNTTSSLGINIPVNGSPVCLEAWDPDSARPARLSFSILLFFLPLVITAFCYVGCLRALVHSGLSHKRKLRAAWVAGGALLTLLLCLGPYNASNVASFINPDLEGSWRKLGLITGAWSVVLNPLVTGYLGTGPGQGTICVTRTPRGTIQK

The term Emax denotes the size of the effect at its maximum, as opposed to the concentration needed. The term EC50 denotes the midpoint of the concentration-response curve. Consider `CS(=O)(=O)CCCOc1ccc(-c2ccc(F)c(C3COc4cc5c(cc4O3)OC[C@H]5CC(=O)O)c2)c(Cl)c1` (stereo partly specified), for which the Emax in data set [1] was 102%. Also, the EC50 in [2] came out at 56.2 nM.
The corresponding values for `CS(=O)(=O)CCCOc1ccc(-c2cccc([C@@H]3COc4cc5c(cc4O3)OC[C@H]5CC(=O)O)c2)c(Cl)c1` are 89% and 94.8 nM.
For the compound `O=C(O)C[C@@H]1COc2cc3c(cc21)OCC(c1cc(F)cc(Br)c1)O3` (stereo partly specified), the Emax in [1] stood at 38%. The EC50 in data set [2] came to 105 nM.
`Cc1cccc(C)c1-c1cccc([C@H]2COc3cc4c(cc3O2)OC[C@H]4CC(=O)O)c1`: in [1], the Emax amounted to 72%. The EC50 in data set [2] amounted to 30.1 nM.
The corresponding values for `O=C(O)C[C@@H]1COc2cc3c(cc21)OCC(c1cccc(C2CC2)c1)O3` (stereo partly specified) are 66% and 36.4 nM.
In the case of `O=C(O)C[C@@H]1COc2cc3c(cc21)OCC(c1cccc(-c2ccccc2C(F)(F)F)c1)O3` (stereo partly specified), in data set [1], the maximal response (Emax) stood at 104%. Further, the EC50 in [2] was found to be 74.5 nM.
In the case of `Cc1cc(OCCCS(C)(=O)=O)cc(C)c1-c1ccc(F)c([C@H]2COc3cc4c(cc3O2)OC[C@H]4CC(=O)O)c1`, the outcome in the data set on Mus musculus [3] was Active. For the same compound, in data set [1], the Emax came out at 83%. For the same compound, in data set [2], the EC50 amounted to 67.5 nM.
`O=C(O)C[C@@H]1COc2cc3c(cc21)OC[C@@H](c1cccc(-c2ccccc2Cl)c1)O3`: the maximal response (Emax) in [1] came out at 99%. Moreover, the EC50 in data set [2] was found to be 66.7 nM.
The matching figures for `O=C(O)C[C@@H]1COc2cc3c(cc21)OCC(c1cc(F)cc(C(F)(F)F)c1)O3` (stereo partly specified): 79% and 63.7 nM.
The corresponding values for `Cc1ccccc1-c1cccc([C@@H]2COc3cc4c(cc3O2)OC[C@H]4CC(=O)O)c1` are 76% and 39.3 nM.
The matching figures for `Cc1cccc(C)c1-c1cccc([C@@H]2COc3cc4c(cc3O2)OC[C@H]4CC(=O)O)c1`: 85% and 52.9 nM.
Regarding `O=C(O)C[C@@H]1COc2cc3c(cc21)OC[C@H](c1cccc(Br)c1)O3`, the Emax in data set [1] was determined as 105%. In addition, the EC50 in data set [2] is 111 nM.
The corresponding values for `O=C(O)C[C@@H]1COc2cc3c(cc21)OC[C@H](c1cccc(C(F)(F)F)c1)O3` are 55.6% and 30.4 nM.
In the case of `Cc1cc(F)ccc1-c1cccc(C2COc3cc4c(cc3O2)OC[C@H]4CC(=O)O)c1` (stereo partly specified), the Emax in data set [1] came to 77%. For the same compound, in data set [2], the EC50 was 35.9 nM.
The corresponding values for `Cc1cc(OCCCS(C)(=O)=O)cc(C)c1-c1cccc([C@@H]2COc3cc4c(cc3O2)OC[C@H]4CC(=O)O)c1` are 124% and 55.9 nM.
`O=C(O)C[C@@H]1COc2cc3c(cc21)OCC(c1cccc(Br)c1)O3` (stereo partly specified): in data set [1], the Emax came to 89%. The EC50 in data set [2] was determined as 54.7 nM.
`CS(=O)(=O)CCCOc1ccc(-c2cc(F)cc(C3COc4cc5c(cc4O3)OC[C@H]5CC(=O)O)c2)c(Cl)c1` (stereo partly specified): the Emax in [1] stood at 69%. Also, in data set [2], the EC50 is 205 nM.
Consider `Cc1cc(OCCCS(C)(=O)=O)ccc1-c1cccc(C2COc3cc4c(cc3O2)OC[C@H]4CC(=O)O)c1` (stereo partly specified), for which the Emax in data set [1] is 53%. For the same compound, in [2], the EC50 amounted to 123 nM.
For the compound `CS(=O)(=O)CCCOc1ccc(-c2cccc([C@H]3COc4cc5c(cc4O3)OC[C@H]5CC(=O)O)c2)c(Cl)c1`, the Emax in data set [1] was determined as 71%. In addition, the EC50 in [2] came to 145 nM.
The matching figures for `Cc1ccc(C)c(-c2cccc(C3COc4cc5c(cc4O3)OC[C@H]5CC(=O)O)c2)c1` (stereo partly specified): 89% and 88 nM.
Consider `Cc1cc(C)c(-c2cccc(C3COc4cc5c(cc4O3)OC[C@H]5CC(=O)O)c2)c(C)c1` (stereo partly specified), for which the maximal response (Emax) in data set [1] was determined as 103%. Besides, the EC50 in data set [2] came to 61.6 nM.
The corresponding values for `O=C(O)C[C@@H]1COc2cc3c(cc21)OCC(c1cccc(-c2ccccc2)c1)O3` (stereo partly specified) are 105% and 65.4 nM.
The matching figures for `O=C(O)C[C@@H]1COc2cc3c(cc21)OC[C@H](c1cccc(Cl)c1)O3`: 72% and 220 nM.
With `Cc1cc(OCCCS(C)(=O)=O)cc(C)c1-c1ccc(F)c([C@@H]2COc3cc4c(cc3O2)OC[C@H]4CC(=O)O)c1`, in the data set on Mus musculus [3], the outcome was inactive. Further, the Emax in data set [1] stood at 87%. For the same compound, in [2], the EC50 was 46.5 nM.
Turning to `Cc1cc(OCCCS(C)(=O)=O)c(F)c(C)c1-c1cccc([C@H]2COc3cc4c(cc3O2)OC[C@H]4CC(=O)O)c1`, the Emax in [1] stood at 77%. Besides, the EC50 in [2] was 121 nM.
As to `O=C(O)C[C@@H]1COc2cc3c(cc21)OC[C@H](c1cccc(-c2ccccc2Cl)c1)O3` (mixture of isomers), in [1], the Emax is 97%. Besides, the EC50 in data set [2] was determined as 56.7 nM.
The corresponding values for `O=C(O)C[C@@H]1COc2cc3c(cc21)OCC(c1cccc(-c2ccccc2F)c1)O3` (stereo partly specified) are 115% and 73.2 nM.
Consider `Cc1cc(C)cc(-c2cccc(C3COc4cc5c(cc4O3)OC[C@H]5CC(=O)O)c2)c1` (stereo partly specified), for which the Emax in [1] was 68%. In addition, the EC50 in [2] worked out at 132 nM.
The corresponding values for `O=C(O)C[C@@H]1COc2cc3c(cc21)OC[C@H](c1ccc(Cl)c(Cl)c1)O3` are 61% and 191 nM.
The corresponding values for `O=C(O)C[C@@H]1COc2cc3c(cc21)OCC(c1ccc(Br)cc1)O3` (stereo partly specified) are 38% and more than 10000 nM.
Regarding `CS(=O)(=O)CCCOc1ccc(-c2cc(C3COc4cc5c(cc4O3)OC[C@H]5CC(=O)O)ccc2F)c(Cl)c1` (stereo partly specified), in [1], the Emax came out at 66%. Also, in data set [2], the EC50 was 125 nM.
The term Cmax denotes the peak of the concentration-time curve. The AUC is the area under the concentration-time curve, a measure of exposure. A lower AUC goes with less exposure. As usually defined, the half-life is how long it takes for the measured level to halve. What is called CL/F is the apparent clearance, not corrected for the fraction that reaches the circulation. By inhibition in vivo is commonly meant the drop in the measured response relative to a control, in per cent. Turning to `O=C(O)C[C@@H]1COc2cc3c(cc21)OC[C@@H](c1ccc(Cl)c(Cl)c1)O3`, the Emax in data set [4] turned out to be 46.8%; in data set [1] it was 129%. Further, the concentration in data set [5] peaked (Cmax) at 18900 ng/mL. In data set [6], this compound displayed an AUC of 337 µg·h/mL. Besides, in [7], the half-life is 798 min. Moreover, the Vd in the data set on Rattus norvegicus came to 0.25 L/kg. Also, in data set [8], the CL/F is 0.167 mL/min/kg. Besides, the inhibition in vivo at 50 mg/kg with Mus musculus [9] was determined as 4.9%. Moreover, the EC50 in data set [2] was 16 nM.
Regarding `Cc1cc(OCCCS(C)(=O)=O)c(F)c(C)c1-c1cccc([C@@H]2COc3cc4c(cc3O2)OC[C@H]4CC(=O)O)c1`, the Emax in data set [1] amounted to 83%. In [2], the half-maximal effective concentration (EC50) is 82.4 nM.
The corresponding values for `O=C(O)C[C@@H]1COc2cc3c(cc21)OCC(c1cccc(-c2ccc(F)cc2Cl)c1)O3` (stereo partly specified) are 103% and 74.7 nM.
The matching figures for `Cc1ccc(-c2cccc(C3COc4cc5c(cc4O3)OC[C@H]5CC(=O)O)c2)c(C)c1` (stereo partly specified): 90% and 38.7 nM.
On to `Cc1cc(OCCCS(C)(=O)=O)cc(C)c1-c1cccc([C@H]2COc3cc4c(cc3O2)OC[C@H]4CC(=O)O)c1`, for which, in data set [1], the Emax stood at 111%. The EC50 in data set [2] was determined as 282 nM.
